# Where two headings read alike, the source gives them in different places.
# Key:
# [1] = biological target: T1, NAMPT (Homo sapiens, UniProt P43490); assay: Biochemical inhibition assay: NAMPT enzymatic reaction, NMN quantified by mass spectrometry; details: read-out: Biochem IC50
# T1 construct: His tag; host or cells: E. coli
# Summary of the method: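 Inhibition of E. coli-expressed His-tagged human NAMPT, measured as NMN formation by mass spectrometry after a 30 min room-temperature reaction containing 1 μM NAM, 100 μM PRPP and 2.5 mM ATP.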
# [2] = system: A2780 cells; assay: In-vitro cell proliferation assay (SRB), A2780 cells; type: cell-based; details: Homo sapiens, A2780, 72 h, A2780 cells, 72 hours, read-out: A2780 IC50
# Summary of the method: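 Growth inhibition was derived from background-corrected SRB absorbance (570 nm), measured on cells fixed in 6% TCA after three days of compound treatment under 5% CO2 at 37° C.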
# T1 sequence (P43490 whole entry): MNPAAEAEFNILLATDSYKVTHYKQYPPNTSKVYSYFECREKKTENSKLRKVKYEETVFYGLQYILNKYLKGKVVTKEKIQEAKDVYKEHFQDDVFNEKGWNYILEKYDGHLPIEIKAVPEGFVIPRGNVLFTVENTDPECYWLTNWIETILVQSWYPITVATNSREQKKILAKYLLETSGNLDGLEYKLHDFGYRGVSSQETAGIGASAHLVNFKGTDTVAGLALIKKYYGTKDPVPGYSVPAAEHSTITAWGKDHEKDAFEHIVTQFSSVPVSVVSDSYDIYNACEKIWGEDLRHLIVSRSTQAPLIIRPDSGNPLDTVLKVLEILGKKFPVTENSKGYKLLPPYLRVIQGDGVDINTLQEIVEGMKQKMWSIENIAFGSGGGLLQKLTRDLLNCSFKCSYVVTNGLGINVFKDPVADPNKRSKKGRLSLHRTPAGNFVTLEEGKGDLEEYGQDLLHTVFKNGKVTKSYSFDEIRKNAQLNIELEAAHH
Structure (SMILES),IC50 ([1]; NAMPT enzymatic assay) [nM],IC50 ([2]; SRB) [nM],IC50 ([1]; NAMPT enzymatic reaction) [nM],IC50 ([2]; SRB assay) [nM]
"Cn1ncc2c(S(=O)(=O)c3ccc(CNC(=O)c4cnc5nccn5c4)cc3)cccc21 [N-{[4-(1-methyl-1H-indazole-4-sulfonyl)phenyl]methyl}imidazo[1,2-a]pyrimidine-6-carboxamide]",4.2,10.3,,
"Cn1ncc2c(S(=O)(=O)c3ccc(CNC(=O)c4cc5ccncc5s4)cc3)cccc21 [N-{[4-(1-methyl-1H-indazole-4-sulfonyl)phenyl]methyl}thieno[2,3-c]pyridine-2-carboxamide]",1.1,0.8,,
"Cn1ncc2cc(S(=O)(=O)c3ccc(CNC(=O)c4cnc5[nH]ncc5c4)cc3)ccc21 [N-{[4-(1-methyl-1H-indazole-5-sulfonyl)phenyl]methyl}-1H-pyrazolo[3,4-b]pyridine-5-carboxamide]",5.4,2.73,,
"Cn1ncc2cc(S(=O)(=O)c3ccc(CNC(=O)c4cc5cnccc5[nH]4)cc3)ccc21 [N-{[4-(1-methyl-1H-indazole-5-sulfonyl)phenyl]methyl}-1H-pyrrolo[3,2-c]pyridine-2-carboxamide]",5.7,3.1,,
"Cn1ncc2cc(S(=O)(=O)c3ccc(CNC(=O)c4cc5ccncc5o4)cc3)ccc21 [N-{[4-(1-methyl-1H-indazole-5-sulfonyl)phenyl]methyl}furo[2,3-c]pyridine-2-carboxamide]",3.3,3.5,,
"Cn1ncc2cc(S(=O)(=O)c3ccc(CNC(=O)c4ccc5nccn5c4)cc3)ccc21 [N-{[4-(1-methyl-1H-indazole-5-sulfonyl)phenyl]methyl}imidazo[1,2-a]pyridine-6-carboxamide]",4,1.6,,
"Cn1ncc2cc(S(=O)(=O)c3ccc(CNC(=O)c4cnc5nccn5c4)cc3)ccc21 [N-{[4-(1-methyl-1H-indazole-5-sulfonyl)phenyl]methyl}imidazo[1,2-a]pyrimidine-6-carboxamide]",1.7,4.9,,
"Cn1ncc2cc(S(=O)(=O)c3ccc(CNC(=O)c4cc5ccncc5s4)cc3)ccc21 [N-{[4-(1-methyl-1H-indazole-5-sulfonyl)phenyl]methyl}thieno[2,3-c]pyridine-2-carboxamide]",1.5,1.6,,
"Cn1ncc2ccc(S(=O)(=O)c3ccc(CNC(=O)c4cnc5[nH]ncc5c4)cc3)cc21 [N-{[4-(1-methyl-1H-indazole-6-sulfonyl)phenyl]methyl}-1H-pyrazolo[3,4-b]pyridine-5-carboxamide]",4,3,,
"Cn1ncc2ccc(S(=O)(=O)c3ccc(CNC(=O)c4cc5cnccc5[nH]4)cc3)cc21 [N-{[4-(1-methyl-1H-indazole-6-sulfonyl)phenyl]methyl}-1H-pyrrolo[3,2-c]pyridine-2-carboxamide]",5.1,3.3,,
"Cn1ncc2ccc(S(=O)(=O)c3ccc(CNC(=O)c4cc5ccncc5o4)cc3)cc21 [N-{[4-(1-methyl-1H-indazole-6-sulfonyl)phenyl]methyl}furo[2,3-c]pyridine-2-carboxamide]",4.7,3.4,,
"Cn1ncc2ccc(S(=O)(=O)c3ccc(CNC(=O)c4ccc5nccn5c4)cc3)cc21 [N-{[4-(1-methyl-1H-indazole-6-sulfonyl)phenyl]methyl}imidazo[1,2-a]pyridine-6-carboxamide]",5,3.9,,
"Cn1ncc2ccc(S(=O)(=O)c3ccc(CNC(=O)c4cnc5nccn5c4)cc3)cc21 [N-{[4-(1-methyl-1H-indazole-6-sulfonyl)phenyl]methyl}imidazo[1,2-a]pyrimidine-6-carboxamide]",1.6,5,,
"Cn1ncc2ccc(S(=O)(=O)c3ccc(CNC(=O)c4cc5ccncc5s4)cc3)cc21 [N-{[4-(1-methyl-1H-indazole-6-sulfonyl)phenyl]methyl}thieno[2,3-c]pyridine-2-carboxamide]",2.3,1.1,,
"Cn1ncc2cccc(S(=O)(=O)c3ccc(CNC(=O)c4cnc5[nH]ncc5c4)cc3)c21 [N-{[4-(1-methyl-1H-indazole-7-sulfonyl)phenyl]methyl}-1H-pyrazolo[3,4-b]pyridine-5-carboxamide]",91.8,86.9,,
"Cn1ncc2cccc(S(=O)(=O)c3ccc(CNC(=O)c4cc5cnccc5[nH]4)cc3)c21 [N-{[4-(1-methyl-1H-indazole-7-sulfonyl)phenyl]methyl}-1H-pyrrolo[3,2-c]pyridine-2-carboxamide]",37.1,11.1,,
"Cn1ncc2cccc(S(=O)(=O)c3ccc(CNC(=O)c4cc5ccncc5o4)cc3)c21 [N-{[4-(1-methyl-1H-indazole-7-sulfonyl)phenyl]methyl}furo[2,3-c]pyridine-2-carboxamide]",11.5,27.5,,
"Cn1ncc2cccc(S(=O)(=O)c3ccc(CNC(=O)c4ccc5nccn5c4)cc3)c21 [N-{[4-(1-methyl-1H-indazole-7-sulfonyl)phenyl]methyl}imidazo[1,2-a]pyridine-6-carboxamide]",28.7,27.5,,
"Cn1ncc2cccc(S(=O)(=O)c3ccc(CNC(=O)c4cnc5nccn5c4)cc3)c21 [N-{[4-(1-methyl-1H-indazole-7-sulfonyl)phenyl]methyl}imidazo[1,2-a]pyrimidine-6-carboxamide]",23.3,100 to 1000,,
"Cn1ncc2cccc(S(=O)(=O)c3ccc(CNC(=O)c4cc5ccncc5s4)cc3)c21 [N-{[4-(1-methyl-1H-indazole-7-sulfonyl)phenyl]methyl}thieno[2,3-c]pyridine-2-carboxamide]",4.5,10.4,,
"Cn1c(S(=O)(=O)c2ccc(CNC(=O)c3cnc4[nH]ncc4c3)cc2)cc2ccccc21 [N-{[4-(1-methyl-1H-indole-2-sulfonyl)phenyl]methyl}-1H-pyrazolo[3,4-b]pyridine-5-carboxamide]",14,13.2,,
"Cn1c(S(=O)(=O)c2ccc(CNC(=O)c3cc4ccncc4s3)cc2)cc2ccccc21 [N-{[4-(1-methyl-1H-indole-2-sulfonyl)phenyl]methyl}thieno[2,3-c]pyridine-2-carboxamide]",5.2,3.4,,
"Cn1cc(S(=O)(=O)c2ccc(CNC(=O)c3cnc4[nH]ncc4c3)cc2)cn1 [N-{[4-(1-methyl-1H-pyrazole-4-sulfonyl)phenyl]methyl}-1H-pyrazolo[3,4-b]pyridine-5-carboxamide]",182,100 to 1000,,
"Cn1cc(S(=O)(=O)c2ccc(CNC(=O)c3cc4cnccc4[nH]3)cc2)cn1 [N-{[4-(1-methyl-1H-pyrazole-4-sulfonyl)phenyl]methyl}-1H-pyrrolo[3,2-c]pyridine-2-carboxamide]",,,48,123
"Cn1cc(S(=O)(=O)c2ccc(CNC(=O)c3cc4ccncc4o3)cc2)cn1 [N-{[4-(1-methyl-1H-pyrazole-4-sulfonyl)phenyl]methyl}furo[2,3-c]pyridine-2-carboxamide]",16.8,65.4,,
"Cn1cc(S(=O)(=O)c2ccc(CNC(=O)c3cnc4nccn4c3)cc2)cn1 [N-{[4-(1-methyl-1H-pyrazole-4-sulfonyl)phenyl]methyl}imidazo[1,2-a]pyrimidine-6-carboxamide]",8.2,100 to 1000,,
"CCCn1cc(S(=O)(=O)c2ccc(CNC(=O)c3cnc4[nH]ncc4c3)cc2)cn1 [N-{[4-(1-propyl-1H-pyrazole-4-sulfonyl)phenyl]methyl}-1H-pyrazolo[3,4-b]pyridine-5-carboxamide]",8,7,,

# Reference: patent publication US12336981B2, “Compounds and compositions for the inhibition of NAMPT” (Valo Health, Inc., priority 2010, dated 2025)
